Measurements from ChEMBL document CHEMBL1649232 (Antimicrob Agents Chemother, 2009).

Legend:
[1] = Cmax in healthy human at […] parenteral dose; assay type: ADME, organism-based; details: in vivo
[2] = Drug level in sputum of healthy human between 6 to 24 hrs postdosing; assay type: ADME, tissue-based; details: in vivo

CCC(CC)[C@H](NC(C)=O)[C@@H]1[C@H](O)[C@@H](C(=O)O)C[C@H]1NC(=N)N [PERAMIVIR ANHYDROUS]
Cmax [1]: 10000 ng/mL

CC(=O)N[C@H]1[C@H]([C@H](O)[C@H](O)CO)OC(C(=O)O)=C[C@@H]1N=C(N)N [ZANAMIVIR]
Drug uptake [2]: 47 ng/mL
